{"source": "paper PMC12457114", "about": "“Comparison of the pharmacokinetic profiles of three triterpenoids after oral administration of a cucurbitacin tablet and nanosuspension by UHPLC-MS/MS” (Frontiers in Pharmacology, 2025)", "key": {"[1]": {"assay": "Pharmacokinetic study in rats after oral administration of CUT and MP-NPs, plasma by UHPLC-MS/MS", "settings": "male, Sprague Dawley, in vivo, n = 6, mean ± SD", "method": "An Agilent 6430 triple quadrupole mass spectrometer with an ESI source interface (Agilent Technologies, Santa Clara, CA, United States) was used in conjunction with an Agilent 1290 UHPLC system (Agilent Technologies). A Waters ACQUITY HSS T3 Column (1.8 μm, 2.1 × 100 mm) (Waters, Manchester, UK) was also used for the separations. Gradient elution was performed using water (A) and methanol (B) as mobile phases. The gradient elution procedure was used for 0.0–1.0 min, 80%–80% B; 1.0–1.5 min, 80%–90% B; 1.5–3.0 min, 90%–90% B; 3.0–3.2 min, 90%–80% B; and 3.2–4 min, 80%–80% B. The analytical temperature was 35 °C, and the flow rate was 0.3 mL/min. An injection of 5 μL volume was administered, after which the needle was washed. Positive ion-mode analysis was performed for the samples. The capillary voltage was set to 4500 V, source temperature to 100 °C, and the desolvation temperature to 350 °C ([Wang et al., 2014]). High-purity nitrogen was used as the nebulizing gas, and nitrogen was used as the drying gas at a flow rate of 11 L/min. The Agilent Mass Hunter workstation was used to gather the experimental data ([Wang Z et al., 2023]).\nA total of 12 male Sprague Dawley (SD) rats (weight: 220 ± 20 g) were provided by the Animal Experiment Center of Heilongjiang University of Traditional Chinese Medicine (Production license number: SYXK (Hei) 2021-010). The Laboratory Animal Ethics Committee of Heilongjiang University of Traditional Chinese Medicine approved the study (Approval No.: 2024053114).\nAnimals were randomly assigned to the following two experimental groups (n = 6 per group): CUT and MP-NPs. Treatments were administered once daily for seven consecutive days, with the plasma sampling performed at predetermined time points after administration. Dosage was calculated based on human-equivalent doses converted to rat pharmacokinetic parameters using interspecies scaling factors. The human-rat dose conversion procedure was used to determine the dose of CUT per rat to be 0.03 g. The recommended daily dosage for humans is 6 tablets. The dose of MP-NPs per rat was determined to be 0.06 g per rat using the human-rat dose conversion formula, whereas the dose of P. Melo for human usage was 3 g, with reference to the Pharmacopoeia of the People’s Republic of China 2025.\nAt 0.083, 0.25, 0.50, 1, 1.5, 2, 2.5, 3, 4, 6, 8, 12, and 24 h following oral administration of CUT and MP-NPs, 0.25 mL of plasma samples were sampled by rapidly collecting and centrifuging at 4 °C, followed by freezing at −20 °C for further analysis ([Yu et al., 2023]).\nBlank plasma sample (100 μL) was vortexed for 60 s after adding 100 μL of IS. To guarantee complete extraction, 3 mL of dichloromethane was then added to each sample, followed by vortexing for 120 s. Subsequently, the samples were centrifuged for 10 min at 4 °C and 3,500 rpm. At 40 °C, the […] organic phase was carefully moved into a sterile tube, dried off with a mild stream of nitrogen gas, and then reconstituted in 100 μL of the original mobile phase. Following a 120 s vortex, the extracts were filtered through a 0.22 μm Millipore filter before subjecting them to quantitative analyses by injecting 5 μL of them into the UHPLC-MS/MS apparatus.\nThe established UHPLC-MS/MS method was applied to simultaneously measure the plasma concentrations of the three analytes in rats following dose administration. Pharmacokinetic parameters have attracted attention in exploring drug absorption and distribution. These parameters include T 1/2, C max, T max, and AUC (Table 6). The pharmacokinetics of SD rats following oral administration of CUT and MP-NPs were investigated through UHPLC-MS/MS. The plasma concentrations of the three analytes were calculated. […] The MP-NPs group reached C max more rapidly than the CUT group."}, "[2]": {"assay": "Stability of the analytes in rat plasma under different storage conditions", "format": "in vitro ADME", "settings": "for Stability (RE%) Post-preparative / Stability (RE%) Short-term / Stability (RE%) Long-term / Stability (RE%) Freeze-thaw: rat plasma, n = 6; for Stability (RE%) Post-preparative / Stability in rat plasma (in words): 12 h at 4 °C post-sample preparation; for Stability (RE%) Short-term: ambient temperature (25 °C) for 4 h; for Stability (RE%) Long-term / Stability in rat plasma (in words): storage at −20 °C; for Stability (RE%) Freeze-thaw: three freeze-thaw cycles (−20 °C/room temperature); for Stability in rat plasma (in words): 25 °C for 4 h, three freeze-thaw cycles", "source_text": "Table 5 outlines the stability of LQC, MQC, and HQC in the rat plasma under different storage conditions."}, "[3]": {"settings": "CUT group, oral cucurbitacin tablet 0.03 g per rat"}, "[4]": {"settings": "MP-NPs group, oral MP-NPs(PVP-K30) 0.06 g per rat"}, "[5]": {"settings": "HQC (spiked 300.2 CuB, 600.2 CuD, 300.8 CuE ng/mL)"}, "[6]": {"settings": "LQC (spiked 5.272 CuB, 25.30 CuD, 5.257 CuE ng/mL)"}, "[7]": {"settings": "MQC (spiked 150.1 CuB, 300.1 CuD, 150.4 CuE ng/mL)"}}, "data": [{"smiles": "CC(C)(O)/C=C/C(=O)[C@](C)(O)[C@H]1[C@H](O)C[C@@]2(C)[C@@H]3CC=C4[C@@H](C[C@H](O)C(=O)C4(C)C)[C@]3(C)C(=O)C[C@]12C", "note": "[CuD, cucurbitacin D]", "values": [{"measurement": "AUC(0-inf)", "setting": "[1]; [3]", "result": 1160, "unit": "ng·h/mL"}, {"measurement": "AUC(0-t)", "setting": "[1]; [3]", "result": 1030, "unit": "ng·h/mL"}, {"measurement": "Cmax", "setting": "[1]; [3]", "result": "339 ± 24.4", "unit": "ng/mL"}, {"measurement": "Tmax", "setting": "[1]; [3]", "result": "1.83 ± 0.683", "unit": "h"}, {"measurement": "half-life", "setting": "[1]; [3]", "result": "5.33 ± 0.991", "unit": "h"}, {"measurement": "AUC(0-inf)", "setting": "[1]; [4]", "result": 1480, "unit": "ng·h/mL"}, {"measurement": "AUC(0-t)", "setting": "[1]; [4]", "result": 1260, "unit": "ng·h/mL"}, {"measurement": "Cmax", "setting": "[1]; [4]", "result": "365 ± 69.9", "unit": "ng/mL"}, {"measurement": "Tmax", "setting": "[1]; [4]", "result": "1.75 ± 0.61", "unit": "h"}, {"measurement": "half-life", "setting": "[1]; [4]", "result": "6.97 ± 2.92", "unit": "h"}, {"measurement": "Stability (RE%) Post-preparative", "setting": "[2]; [5]", "result": 7.032, "unit": "%"}, {"measurement": "Stability (RE%) Short-term", "setting": "[2]; [5]", "result": "−5.861", "unit": "%"}, {"measurement": "Stability (RE%) Long-term", "setting": "[2]; [5]", "result": "−2.272", "unit": "%"}, {"measurement": "Stability (RE%) Freeze-thaw", "setting": "[2]; [5]", "result": "−7.765", "unit": "%"}, {"measurement": "Stability (RE%) Post-preparative", "setting": "[2]; [6]", "result": "−3.854", "unit": "%"}, {"measurement": "Stability (RE%) Short-term", "setting": "[2]; [6]", "result": 4.262, "unit": "%"}, {"measurement": "Stability (RE%) Long-term", "setting": "[2]; [6]", "result": 5.336, "unit": "%"}, {"measurement": "Stability (RE%) Freeze-thaw", "setting": "[2]; [6]", "result": "−3.242", "unit": "%"}, {"measurement": "Stability (RE%) Post-preparative", "setting": "[2]; [7]", "result": "−8.805", "unit": "%"}, {"measurement": "Stability (RE%) Short-term", "setting": "[2]; [7]", "result": "−4.154", "unit": "%"}, {"measurement": "Stability (RE%) Long-term", "setting": "[2]; [7]", "result": "−5.533", "unit": "%"}, {"measurement": "Stability (RE%) Freeze-thaw", "setting": "[2]; [7]", "result": "−8.420", "unit": "%"}, {"measurement": "Stability in rat plasma (in words)", "setting": "[2]", "result": "remained stable"}]}, {"smiles": "CC(=O)OC(C)(C)/C=C/C(=O)[C@](C)(O)[C@H]1[C@H](O)C[C@@]2(C)[C@@H]3CC=C4[C@@H](C=C(O)C(=O)C4(C)C)[C@]3(C)C(=O)C[C@]12C", "note": "[CuE, cucurbitacin E]", "values": [{"measurement": "AUC(0-inf)", "setting": "[1]; [3]", "result": "682 ± 126", "unit": "ng·h/mL"}, {"measurement": "AUC(0-t)", "setting": "[1]; [3]", "result": "603 ± 125", "unit": "ng·h/mL"}, {"measurement": "Cmax", "setting": "[1]; [3]", "result": "166 ± 13.8", "unit": "ng/mL"}, {"measurement": "Tmax", "setting": "[1]; [3]", "result": "2.25 ± 0.521", "unit": "h"}, {"measurement": "half-life", "setting": "[1]; [3]", "result": "5.99 ± 1.23", "unit": "h"}, {"measurement": "AUC(0-inf)", "setting": "[1]; [4]", "result": "973 ± 269", "unit": "ng·h/mL"}, {"measurement": "AUC(0-t)", "setting": "[1]; [4]", "result": "752 ± 150", "unit": "ng·h/mL"}, {"measurement": "Cmax", "setting": "[1]; [4]", "result": "236 ± 31.9", "unit": "ng/mL"}, {"measurement": "Tmax", "setting": "[1]; [4]", "result": "1.67 ± 0.612", "unit": "h"}, {"measurement": "half-life", "setting": "[1]; [4]", "result": "7.05 ± 2.7", "unit": "h"}, {"measurement": "Stability (RE%) Post-preparative", "setting": "[2]; [5]", "result": "−8.572", "unit": "%"}, {"measurement": "Stability (RE%) Short-term", "setting": "[2]; [5]", "result": "−3.143", "unit": "%"}, {"measurement": "Stability (RE%) Long-term", "setting": "[2]; [5]", "result": "−3.035", "unit": "%"}, {"measurement": "Stability (RE%) Freeze-thaw", "setting": "[2]; [5]", "result": "−1.361", "unit": "%"}, {"measurement": "Stability (RE%) Post-preparative", "setting": "[2]; [6]", "result": 6.711, "unit": "%"}, {"measurement": "Stability (RE%) Short-term", "setting": "[2]; [6]", "result": 6.050, "unit": "%"}, {"measurement": "Stability (RE%) Long-term", "setting": "[2]; [6]", "result": 8.213, "unit": "%"}, {"measurement": "Stability (RE%) Freeze-thaw", "setting": "[2]; [6]", "result": 7.947, "unit": "%"}, {"measurement": "Stability (RE%) Post-preparative", "setting": "[2]; [7]", "result": "−2.053", "unit": "%"}, {"measurement": "Stability (RE%) Short-term", "setting": "[2]; [7]", "result": "−4.192", "unit": "%"}, {"measurement": "Stability (RE%) Long-term", "setting": "[2]; [7]", "result": 5.814, "unit": "%"}, {"measurement": "Stability (RE%) Freeze-thaw", "setting": "[2]; [7]", "result": 1.424, "unit": "%"}, {"measurement": "Stability in rat plasma (in words)", "setting": "[2]", "result": "remained stable"}]}]}
